Test systems include ACHN renal; HCT-15 colon; HOP-62 NSCLC; HT29 colon; IGROV1 ovarian; NCI-H226 lung; NCI-H23 lung; SF-268 CNS; SW-620 colon; UACC-62 melanoma.
Common to all, as to assay: NCI tumour cell line growth inhibition, 48 h

The structures appear in SMILES notation.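 Values below derive from 48-hour exposures of cells grown in 96-well plates, with endpoints linearly interpolated between the two concentrations bracketing the appropriate inhibition level. Abbreviation: GI50, concentration required for 50% inhibition of growth. At the TGI there is no net growth.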

Turning to `O=C1c2ccccc2-c2nc(-c3cccnc3)cc3c2c1nc1ccccc13`, the TGI with ACHN renal, in the experiment on HCT-15 colon, with HOP-62 NSCLC, with HT29 colon, with IGROV1 ovarian and in the experiment with NCI-H226 lung was over 100 µM each time. The TGI in the experiment on NCI-H23 lung, with SF-268 CNS, with SW-620 colon and with UACC-62 melanoma was over 100 µM in each case.
Take `N#Cc1c(-c2ccccc2)/c(=C\O)c(=O)n2c1nc1ccccc12`: the TGI in the experiment with ACHN renal, in the experiment with HCT-15 colon, in the experiment on HT29 colon, in the experiment on IGROV1 ovarian, in the experiment with NCI-H226 lung and in the experiment with NCI-H23 lung was over 100 µM throughout. For the same compound, the TGI with SF-268 CNS, in the experiment on SW-620 colon and in the experiment with UACC-62 melanoma was over 100 µM in each case.
With `C=C1c2c(cc3c(c2O)c(=O)c2ccccc2n3C)OC1(C)C`, the TGI in the experiment on ACHN renal is over 100 µM; in the experiment on HCT-15 colon, over 100 µM; in the experiment with HT29 colon, over 100 µM; in the experiment on IGROV1 ovarian it was over 100 µM; in the experiment with NCI-H226 lung it was over 100 µM; in the experiment on NCI-H23 lung, 27.3 µM. For the same compound, the TGI with SF-268 CNS, in the experiment on SW-620 colon and with UACC-62 melanoma was over 100 µM throughout.
For `NC(=O)CCC(NCc1c2ccccc2[n+]([O-])c2ccccc12)C(=O)O` (centres undefined), the TGI with ACHN renal, in the experiment with HCT-15 colon, in the experiment on HOP-62 NSCLC, in the experiment on HT29 colon, with IGROV1 ovarian and in the experiment with NCI-H226 lung was over 100 µM throughout. Moreover, the TGI with NCI-H23 lung, in the experiment with SF-268 CNS, in the experiment with SW-620 colon and in the experiment on UACC-62 melanoma was over 100 µM throughout.
In the case of `CCP(=O)(CC)C(Cl)(Cl)C(O)C(C)(C)C` (centres undefined), the TGI in the experiment with ACHN renal, in the experiment on HCT-15 colon, with HOP-62 NSCLC, in the experiment with HT29 colon, in the experiment with IGROV1 ovarian and in the experiment on NCI-H226 lung was over 100 µM each time. Further, the TGI in the experiment on NCI-H23 lung and in the experiment on SW-620 colon was over 100 µM each time.
For `O=C(Cn1nc(Br)c(Br)c1Br)c1ccccc1`, the TGI is 76.2 µM with ACHN renal; over 100 µM in the experiment on HCT-15 colon; over 100 µM in the experiment with HOP-62 NSCLC; 43.5 µM in the experiment on HT29 colon; over 100 µM in the experiment with IGROV1 ovarian; 63.5 µM in the experiment on NCI-H226 lung. Further, the TGI with NCI-H23 lung is 94.3 µM; with SF-268 CNS, over 100 µM; in the experiment with SW-620 colon, over 100 µM; in the experiment with UACC-62 melanoma, 56.9 µM.
As to `O=C1OCC(C#Cc2ccccc2)=C1Cl`, the GI50 in the experiment with ACHN renal was 2.49 µM; in the experiment on HCT-15 colon it was 4.36 µM; with HOP-62 NSCLC, 0.388 µM; in the experiment on HT29 colon, 1.05 µM; in the experiment on IGROV1 ovarian, 1.88 µM; in the experiment with NCI-H226 lung it was 3.11 µM. The GI50 in the experiment with NCI-H23 lung was 14 µM; with SF-268 CNS, 6.82 µM; in the experiment with SW-620 colon, 0.83 µM; in the experiment with UACC-62 melanoma, 6.21 µM. For the same compound, the TGI with ACHN renal is 6.56 µM; in the experiment with HCT-15 colon it was 15.7 µM; in the experiment with HOP-62 NSCLC it was 1.7 µM; with HT29 colon it was 12.9 µM; in the experiment with IGROV1 ovarian, over 100 µM; in the experiment with NCI-H226 lung, 7.13 µM. Also, the TGI stood at 26.9 µM with NCI-H23 lung, 72.7 µM with SF-268 CNS, 5.07 µM in the experiment on SW-620 colon and 18.8 µM with UACC-62 melanoma.
Turning to `O=C(/C=C/c1ccc(O)c(O)c1)OCCc1cccc2ccccc12`, the TGI in the experiment on ACHN renal is 13.4 µM; with HCT-15 colon it was 9.64 µM; with HT29 colon, 27.5 µM; in the experiment on IGROV1 ovarian, 14.5 µM; in the experiment on NCI-H226 lung, 58.6 µM; in the experiment with NCI-H23 lung, 14 µM. Besides, the TGI came to 27 µM in the experiment with SF-268 CNS, 18.9 µM with SW-620 colon and 15 µM in the experiment with UACC-62 melanoma.
For the compound `Cc1ccc(C(=O)C(C)N)cc1` (centres undefined), the TGI in the experiment with ACHN renal, with HCT-15 colon, with HOP-62 NSCLC, with HT29 colon, in the experiment with IGROV1 ovarian and with NCI-H226 lung was over 100 µM in each case. Besides, the TGI with NCI-H23 lung, in the experiment on SF-268 CNS, in the experiment with SW-620 colon and in the experiment with UACC-62 melanoma was over 100 µM in each case.
For the compound `CC[C@@]1(O)C(=O)OCc2c1cc1n(c2=O)Cc2c-1nc1ccccc1c2CC[Si](C)(C)C`, the TGI in the experiment on HCT-15 colon is over 100 µM; in the experiment with HOP-62 NSCLC, 0.458 µM; in the experiment on HT29 colon, over 40.6 µM; with IGROV1 ovarian, over 100 µM; with NCI-H226 lung, under 0.0467 µM; in the experiment with NCI-H23 lung it was 0.0213 µM. Further, the TGI in the experiment with SW-620 colon is over 100 µM; in the experiment with UACC-62 melanoma, 0.176 µM.
As for `Cc1c(-c2cc3n(n2)C(c2cccs2)C(C#N)=C(c2ccccc2)N3)c(=O)n(-c2ccccc2)n1C` (centres undefined), the TGI with HCT-15 colon, in the experiment with HOP-62 NSCLC, in the experiment with HT29 colon, in the experiment with IGROV1 ovarian, in the experiment on NCI-H226 lung and in the experiment with NCI-H23 lung was over 100 µM each time. The TGI in the experiment with SF-268 CNS, in the experiment with SW-620 colon and with UACC-62 melanoma was over 100 µM in each case.
With `Cc1cc2[nH]c3c(C#N)c(-c4ccccc4)c(N=Nc4cccc(C(F)(F)F)c4)c(=O)n3c2cc1C`, the TGI in the experiment with ACHN renal was over 100 µM; in the experiment on HCT-15 colon, over 100 µM; in the experiment with HOP-62 NSCLC, over 100 µM; in the experiment on IGROV1 ovarian, over 100 µM; in the experiment with NCI-H226 lung, over 100 µM; in the experiment with NCI-H23 lung, 93.4 µM. The TGI with SF-268 CNS and in the experiment on SW-620 colon was over 100 µM throughout.
As for `O=P(O)(O)C(CSc1ccccc1)P(=O)(O)O`, the TGI in the experiment with HCT-15 colon, with HOP-62 NSCLC, with HT29 colon, with IGROV1 ovarian, in the experiment on NCI-H226 lung and in the experiment with NCI-H23 lung was over 100 µM each time. Also, the TGI in the experiment on SF-268 CNS, in the experiment on SW-620 colon and in the experiment with UACC-62 melanoma was over 100 µM in each case.

The values are drawn from PubChem BioAssay (NCI).
